Biological target: T1, panel of 442 kinases (Homo sapiens, UniProt Q8WXR4)
T1 construct: purchased KINOMEscan
T1 sequence (Q8WXR4 1-1341): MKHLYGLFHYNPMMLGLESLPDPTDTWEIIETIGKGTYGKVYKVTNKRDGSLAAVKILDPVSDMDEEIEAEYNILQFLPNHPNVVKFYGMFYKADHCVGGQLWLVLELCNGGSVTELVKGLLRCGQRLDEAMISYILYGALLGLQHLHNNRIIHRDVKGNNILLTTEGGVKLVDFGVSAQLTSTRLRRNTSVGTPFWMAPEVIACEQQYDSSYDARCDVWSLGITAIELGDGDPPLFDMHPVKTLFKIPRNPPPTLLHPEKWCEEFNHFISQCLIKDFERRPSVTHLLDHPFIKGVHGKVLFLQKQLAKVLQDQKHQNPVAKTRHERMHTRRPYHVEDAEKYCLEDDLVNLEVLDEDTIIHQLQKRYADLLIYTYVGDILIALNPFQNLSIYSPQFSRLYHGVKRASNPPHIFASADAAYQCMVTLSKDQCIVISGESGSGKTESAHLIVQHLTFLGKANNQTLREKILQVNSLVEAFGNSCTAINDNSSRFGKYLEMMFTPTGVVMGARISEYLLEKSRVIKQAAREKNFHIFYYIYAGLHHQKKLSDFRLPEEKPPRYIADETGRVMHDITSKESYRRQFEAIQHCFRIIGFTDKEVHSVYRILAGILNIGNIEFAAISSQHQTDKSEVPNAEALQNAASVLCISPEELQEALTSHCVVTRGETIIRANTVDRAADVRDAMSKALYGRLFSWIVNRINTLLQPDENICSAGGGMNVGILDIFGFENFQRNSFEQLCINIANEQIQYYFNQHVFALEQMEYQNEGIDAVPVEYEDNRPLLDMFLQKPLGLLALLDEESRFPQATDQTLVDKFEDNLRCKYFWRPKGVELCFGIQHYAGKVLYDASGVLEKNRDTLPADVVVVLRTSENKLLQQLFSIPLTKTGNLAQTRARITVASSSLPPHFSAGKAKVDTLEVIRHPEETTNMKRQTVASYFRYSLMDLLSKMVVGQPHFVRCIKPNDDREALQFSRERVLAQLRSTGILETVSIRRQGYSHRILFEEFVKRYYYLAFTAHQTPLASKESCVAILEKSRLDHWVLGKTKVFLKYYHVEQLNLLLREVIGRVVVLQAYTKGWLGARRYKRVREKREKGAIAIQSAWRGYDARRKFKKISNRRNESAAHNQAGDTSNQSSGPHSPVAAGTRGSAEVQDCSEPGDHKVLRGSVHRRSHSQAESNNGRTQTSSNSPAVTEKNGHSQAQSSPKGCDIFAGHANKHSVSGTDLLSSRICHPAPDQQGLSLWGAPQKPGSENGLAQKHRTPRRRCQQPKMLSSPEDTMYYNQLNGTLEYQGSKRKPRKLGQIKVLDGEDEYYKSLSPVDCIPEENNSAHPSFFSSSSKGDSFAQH
Assay type: binding
Settings: Compound Concentration 10 µM
Text: We assessed the selectivity of members of this scaffold using the KINOMEscan methodology across a near comprehensive panel of 442 kinases [[18,27]].

COc1cc(C(=O)N2CCC(N3CCN(C)CC3)CC2)ccc1Nc1ncc2c(n1)N(C)c1ccccc1C(=O)N2C [15 (LRRK2-IN-1)]
KINOMEscan: MYO3B: 83

COc1cc(C(=O)N2CCC(N3CCN(C)CC3)CC2)ccc1Nc1ncc2c(n1)N1CCc3cccc(c31)C(=O)N2C [Compound 24]
KINOMEscan: MYO3B: 76

COc1cc(C(=O)N2CCC(N3CCN(C)CC3)CC2)ccc1Nc1ncc2c(n1)N(C1CCCC1)c1ccccc1C(=O)N2C [Compound 25, 11-cyclopentyl-2-((2-methoxy-4-(4-(4-methylpiperazin-1-yl)piperidine-1-carbonyl)phenyl)amino)-5-methyl-5H-benzo[e]pyrimido[5,4-b][1,4]diazepin-6(11H)-one]
KINOMEscan: MYO3B: 100

CCOc1cc(C(=O)N2CCC(N3CCN(C)CC3)CC2)ccc1Nc1ncc2c(n1)N(C1CCCC1)c1ccccc1C(=O)N2C [Compound 26]
KINOMEscan: MYO3B: 100

Reference: article PMC3914206
